These results are taken from patent publication US10919938B2, “Modified cyclopentapeptides and uses thereof” (TECHNISCHE UNIVERSITÄT MÜNCHEN, priority 2014, dated 2021).

The target of data set [1] is T1, hCXCR4 (Homo sapiens, UniProt P61073).
T1 construct: endogenous in cells; host or cells: Jurkat human T lymphocyte cells
Description: Determination of IC50: competition against [^125I]FC-131 on Jurkat cells. Type of data set: binding. Particulars: hCXCR4-expressing Jurkat T-cell leukemia cells, [^125I]FC-131 as radioligand, mean ± SD. The procedure:
(§1) After washing twice with 400 piL of cold PBS, the amount of bound radioligand was quantified using a γ-counter. Nonspecific binding was determined in the presence of 1 μM FC131. IC50 values were calculated using the PRISM 4 program (Graph Pad Software, San Diego, Calif.).

Data set [2] is described as follows: Determination of lipophilicity (octanol/PBS partition). Particulars: octanol / PBS pH 7.4, radiolabeled peptide. Type of data set: physicochemical. The procedure: To a solution of app. 2 kBq of radiolabeled peptide in 500 tiL of PBS (pH 7.4), 500 μL of octanol were added (n=6). Vials were vortexed vigorously for 3 min. To achieve quantitative phase separation, the vials were centrifuged at 14,000×g for 6 min in a Biofuge 15 (Heraeus Sepatech, Osterode, Germany). The activity concentrations in 100 μL-samples of both the aqueous and the organic phase were measured in a γ-counter. Both the partition coefficient Pow, which is defined as the molar concentration ratio of a single species A between octanol and an aqueous phase at equilibrium, and log Pow, which is an important parameter used to characterize lipophilicity of a compound, were calculated.

Data set [3] concerns Jurkat cells. Description: Dual tracer internalization study (suspension cells), Jurkat. Type of data set: cell-based, human. How it is done: (§2) The total sample volume was 250 μL. After incubation, the tubes were centrifuged (3 min, 1300 rcf, Megafuge 1.0, Heraeus Thermo Scientific), the supernatant was carefully removed and combined with 200 μL of ice cold HBSS used for washing the cells (free radioligand). To remove surface bound (acid releasable) radioactivity, cells were then washed twice with ice cold acid wash buffer (0.02 M NaOAc in saline buffered with AcOH to pH=5). Finally, the amount of internalized activity in the cell pellet as well as the fraction of free and acid releasable ^68Ga-activity were determined using a γ-counter.

For data set [4], the system named is Daudi cells. Description: Dual tracer internalization study (suspension cells), Daudi. In kind it is cell-based, human. The conditions noted are these: 30 min, 37° C., corrected for non-specific binding (100 μM AMD3100). The procedure:
as §2

A further data set relates to SUDHL-8 cells. Put plainly: Dual tracer internalization study (suspension cells), SUDHL-8. Type of data set: cell-based, human. The conditions noted are these: SUDHL-8, 30 min, 37° C., corrected for non-specific binding (100 μM AMD3100). The procedure:
as §2

Data set [5] deals with HT-29 cells. Put plainly: Dual tracer internalization study (adherent cells), HT-29. Particulars: HT-29, 30 min, 37° C., corrected for non-specific binding (100 μM AMD3100). In kind it is cell-based, human. The procedure: (§3) 2·10^5 cells per well. On the day of the experiment, the culture medium was removed and the cells were washed once with 250 μL of unsupplemented medium before being left to equilibrate in 200 μL of assay medium at 37° C. for a minimum of 15 min before the experiment. […] (n=3 wells, respectively, per time point). Incubation was terminated by placing the plate on an ice pack for app. 1 min and by subsequent removal of the incubation medium. Cells were thoroughly rinsed with 250 μL of HBSS. After washing twice with 250 μL of ice cold acid wash buffer (0.02 M NaOAc buffered with AcOH to pH=5), cells were lysed with 250 μL of 1 N NaOH. The lysate was transferred to vials and combined with 250 μL of HBSS used for rinsing the wells. Quantification of the amount of free, acid-releasable and internalized activity was performed as described.

In data set [6] the test system is SH-SY5Y cells. Put plainly: Dual tracer internalization study (adherent cells), SH-SY5Y. Particulars: 30 min, 37° C., corrected for non-specific binding (100 μM AMD3100). Type of data set: cell-based, human. How it is done: as §3
Data set [7] concerns MCF-7 cells. Description: Dual tracer internalization study (adherent cells), MCF-7. In kind it is cell-based, human. The conditions noted are these: MCF-7, 30 min, 37° C., corrected for non-specific binding (100 μM AMD3100). The procedure: as §3
For another data set, the system named is DU-145 cells. Description: Dual tracer internalization study (adherent cells), DU-145. Particulars: DU-145, 30 min, 37° C., corrected for non-specific binding (100 μM AMD3100). In kind it is cell-based, human. The procedure:
as §3

In data set [8] the test system is Jurkat cells. Put plainly: Dual tracer externalization study (suspension cells), Jurkat. Type of data set: cell-based, human. The procedure: (§4) To ensure receptor integrity, no acid wash was performed after this initial internalization incubation. Then, to determine the extent of ligand recycling, two different experiments were performed. In the experiment allowing ligand recycling, 250 μL of assay medium were added to each well. […] Experiments were carried out in triplicate for both experimental conditions. Subsequently, the cells were incubated for 5, 15, 30 and 60 minutes at 37° C. Then, the tubes were centrifuged, the supernatant was removed and combined with 250 μL of HBSS used for washing the cells. This fraction represents the amount of externalized ligand. The following steps, i.e. acid wash and quantification of the remaining cellular activity, were performed as described for the internalization experiment.

For data set [9], the system named is Daudi cells. Description: Dual tracer externalization study (suspension cells), Daudi. Type of data set: cell-based, human. How it is done: as §4
The test system of data set [10] is HT-29 cells. Description: Dual tracer externalization study (adherent cells), HT-29. Type of data set: cell-based, human. How it is done:
(§5) In the experiment allowing ligand recycling 250 µL of assay medium were added to the wells (n=3). […] Subsequently, cells were incubated at 37° C. for 5, 15, 30 and 60 min, respectively. The supernatant was removed and combined with 250 μL of HBSS used for rinsing the cells. This fraction represents the amount of externalized ligand at the respective time point. The following lysis of the cells was performed as desribed for the internalization experiment.

Data set [11] relates to SH-SY5Y cells. Description: Dual tracer externalization study (adherent cells), SH-SY5Y. Type of data set: cell-based, human. The procedure: as §5
Data set [12] concerns MCF-7 cells. Description: Dual tracer externalization study (adherent cells), MCF-7. In kind it is cell-based, human. How it is done:
as §5

Data set [13] relates to CXCR4 expressing cell lines. Put plainly: Dual tracer internalization studies in various human cancer cell lines. Type of data set: cell-based. The conditions noted are these: in all cell lines. The procedure: as §2
as §3, with “The lysate was transferred to vials and combined with 250 μL of HBSS used for rinsing the wells.” left out

The test system of data set [14] is Daudi (high CXCR4) and SU-DHL-8 (low CXCR4) xenografts. The conditions noted are these: mouse, in vivo, iv.
Description: (§6) For the induction of tumor growth, female CB-17 SCID mice (6-8 weeks, Charles River, Sulzfeld, Germany) were injected subcutaneously with app. 5×10^6 Daudi (right shoulder) or SU-DHL-8 (left shoulder) cells suspended in 100 μL of a 1:1 (v/v) mixture of serum free culture medium and Matrigel (BD Biosciences, Heidelberg, Germany). Within 10-21 days, solid palpable tumors had grown (100-800 mg), and the animals were used for the experiments.
(§7) The animals were sacrificed 90 min post injection (p.i.), and the organs of interest were dissected. The radioactivity was measured in weighted tissue samples using a γ-counter. Data are expressed in % ID/g tissue (mean±SD).
For data set [15] the test system is unchanged. Put plainly: Dual tracer biodistribution study in tumor bearing SCID mice. Particulars: i.v., 1 h p.i.
Description: as §6, §7
The target of data set [16] is T1, hCXCR4. Description: Determination of inverse IC50: radioiodinated peptides against standard competitor FC-131 on Jurkat cells. Type of data set: binding. Particulars: combining IC50 and inverse IC50 assays. The procedure: as §1
Experiments were performed in analogy the determination of IC50.

The target in data set [17] is T1, hCXCR4. Particulars: stated in text as had been shown; cited from earlier work.
The mark [18] stands for this setting: recycling allowed (medium only).
The mark [19] stands for this setting: recycling inhibited (100 μM AMD3100).

Where two headings read alike, the source gives them in different places. Non-standard residues stand in square brackets, D forms with d. Residues, ends and D or L forms follow the SMILES beside them. Groups on a side chain read outwards from the residue. *: point of attachment. DOTA(Ga) = O=C1CN2CCN3CCN(CC(=O)*)CCN(CC2)CC(=O)[O][Ga]([O]1)[O]C(=O)C3; DOTA = O=C(O)CN1CCN(CC(=O)O)CCN(CC(=O)*)CCN(CC(=O)O)CC1; 2Nal = N[C@@H](Cc1ccc2ccccc2c1)C(=O)O; dNMeOrn = CN[C@H](CCCN)C(=O)O; 4Amb = NCc1ccc(C(=O)O)cc1; 4Abz = Nc1ccc(C(=O)O)cc1; Ahx = NCCCCCC(=O)O A value given as a limit tells only on which side of the number the result lay.

T1 sequence (P61073 whole entry): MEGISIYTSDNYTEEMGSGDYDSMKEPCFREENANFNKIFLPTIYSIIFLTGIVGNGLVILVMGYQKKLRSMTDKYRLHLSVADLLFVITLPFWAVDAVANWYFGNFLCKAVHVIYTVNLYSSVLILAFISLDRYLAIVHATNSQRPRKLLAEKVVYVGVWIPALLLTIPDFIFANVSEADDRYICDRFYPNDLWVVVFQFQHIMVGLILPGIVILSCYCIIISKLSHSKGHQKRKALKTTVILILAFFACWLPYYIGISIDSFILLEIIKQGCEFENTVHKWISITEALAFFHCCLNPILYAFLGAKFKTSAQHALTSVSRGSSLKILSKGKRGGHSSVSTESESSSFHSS

For orientation: IC50 means the concentration that gives 50% inhibition. Consider yorn′(ABS, Ahx, DOTA, In)RNalG, for which the half-maximal inhibitory concentration (IC50) at hCXCR4 [1] is 26.5 ± 22.6 nM.
For the molecule [^125I]yorn′(AMBS, DOTA, Ga)RNalG, the “Log PO/PBS” value in data set [2] is reported as −1.56. Further, the “fraction of membrane bound activity versus internalized activity (in words)” value in the data set with Jurkat cells [3] (Jurkat cells, comparable for the other cell lines) is given as “considerably higher”. Besides, the “Internalization efficiency (internalized activity in % of total cellular activity)” value in the data set with Jurkat cells [3] (Jurkat, 30 min, 37° C., corrected for non-specific binding (100 μM AMD3100)) is listed as 27.4 ± 2.0 % of total cellular activity; with Daudi cells [4] it was 51.3 ± 4.4 % of total cellular activity; in the data set with SUDHL-8 cells, 29.9 ± 5.2 % of total cellular activity; with HT-29 cells [5], 77.9 ± 4.6 % of total cellular activity; in the data set with SH-SY5Y cells [6] it was 57.3 ± 7.1 % of total cellular activity; with MCF-7 cells [7] it was 37.6 ± 3.7 % of total cellular activity. Besides, the “Internalization efficiency (internalized activity in % of total cellular activity)” value in the data set with DU-145 cells was 69.1 ± 18.2 % of total cellular activity. Besides, the “Residual internalized activity after a 60 min externalization incubation” value with Jurkat cells [8] (setting [18]) was 8.0 ± 2.0 % of total cellular activity at t = 0; in the data set on Jurkat cells [8] (setting [19]) it was 3.7 ± 1.3 % of total cellular activity at t = 0; in the data set on Daudi cells [9] (setting [18]), 14.5 ± 2.0 % of total cellular activity at t = 0; with Daudi cells [9] (setting [19]), 7.0 ± 0.5 % of total cellular activity at t = 0; with HT-29 cells [10] (HT-29, recycling allowed (medium only)) it was 13.5 ± 2.6 % of total cellular activity at t = 0; with HT-29 cells [10] (HT-29, recycling inhibited (100 μM AMD3100)) it was 10.5 ± 2.5 % of total cellular activity at t = 0. Besides, the “Residual internalized activity after a 60 min externalization incubation” value is recorded as 11.2 ± 2.5 % of total cellular activity at t = 0 in the data set with SH-SY5Y cells [11] (setting [18]); 7.8 ± 1.0 % of total cellular activity at t = 0 in the data set on SH-SY5Y cells [11] (setting [19]); 10.4 ± 1.4 % of total cellular activity at t = 0 in the data set on MCF-7 cells [12] (MCF-7, recycling allowed (medium only)); 8.7 ± 1.1 % of total cellular activity at t = 0 with MCF-7 cells [12] (MCF-7, recycling inhibited (100 μM AMD3100)). Also, the “ligand recycling (in words)” value in the data set on HT-29 cells [10] (HT-29 cells, nearly identical results for the other cell lines) is on record as “almost no ligand recycling”. Further, in [13], the “internalization compared to yorn′(AMBS, DOTA, ^68Ga)RNalG (in words)” value is listed as “significantly higher internalization”. In data set [14], the “tumor-to-non-tumor ratios (in words)” value was “comparable”.
In the case of [^125I]yorn′(AMBS, DOTA, Lu)RNalG, in data set [2], the “Log PO/PBS” value was −1.38.
yorn′(AMBS, DOTA, In)RNalG displayed an IC50 on hCXCR4 [1] of 44.9 ± 10.4 nM.
On the same count and under the same terms, under yorn′(ABS, G, DOTA, Ga)RNalG stands 16.7 ± 3.28 nM.
With [^125I]yorn′(AMBS, DOTA, In)RNalG, in data set [2], the “Log PO/PBS” value was −1.39.
For the molecule `CN1C(=O)[C@@H](Cc2ccc(O)cc2)NC(=O)CNC(=O)[C@H](Cc2ccc3ccccc3c2)NC(=O)[C@H](CCCNC(=N)N)NC(=O)[C@H]1CCCNC(=O)c1ccc(NC(=O)CCCCCNC(=O)CN2CCN3CCN4CCN(CC2)CC(=O)[O][Ga]([O]C(=O)C3)[O]C(=O)C4)cc1` [yorn′(ABS, Ahx, DOTA, Ga)RNalG] (cyclo([2Nal]G[dY][dNMeOrn]([4Abz-Ahx-DOTA(Ga)])R)), at hCXCR4 [1], the IC50 worked out at 30.3 ± 6.52 nM.
Consider [^125I]yorn′(ABS, DOTA, In)RNalG, for which the “Log PO/PBS” value in [2] is given as −1.37.
Consider [^125I]yorn′(ABS, Avs, DOTA, Lu)RNalG, for which the “Log PO/PBS” value in data set [2] is −1.23.
For the molecule `CN1C(=O)[C@@H](Cc2ccc(O)cc2)NC(=O)CNC(=O)[C@H](Cc2ccc3ccccc3c2)NC(=O)[C@H](CCCNC(=N)N)NC(=O)[C@H]1CCCNC(=O)c1ccc(CNC(=O)CN2CCN(CC(=O)O)CCN(CC(=O)O)CCN(CC(=O)O)CC2)cc1` [yorn′(AMBS, DOTA, ^68Ga)RNalG, metal not drawn] (cyclo([dY][dNMeOrn]([4Amb-DOTA])R[2Nal]G)), the “tumor-to-non-tumor ratios (in words)” value in data set [15] is given as “comparable”.
Turning to `CN1C(=O)[C@@H](Cc2ccc(O)cc2)NC(=O)CNC(=O)[C@H](Cc2ccc3ccccc3c2)NC(=O)[C@H](CCCNC(=N)N)NC(=O)[C@H]1CCCNC(=O)c1ccc(CNC(=O)CN2CCN3CCN4CCN(CC2)CC(=O)[O][Ga]([O]C(=O)C3)[O]C(=O)C4)cc1` [yorn′(AMBS, DOTA, Ga)RNalG] (cyclo([2Nal]G[dY][dNMeOrn]([4Amb-DOTA(Ga)])R)), the “increase in CXCR4 affinity by (radio)iodination, factor” value at hCXCR4 [16] is around 20.
Turning to “cyclo(-D-Tyr^1[^125I]-Arg^2-Arg^3-Na1^4-Gly^5 [[^125I]FC-131, reference compound]”, in data set [2], the “Log PO/PBS” value is listed as −0.35.
Turning to 3-iodo-D-Tyr^1-FC-131, on hCXCR4 [17], the 50% inhibitory concentration (IC50) is 1.3 nM.
At hCXCR4 [1], yorn′(DOTA, In)RNalG came in with a half-inhibitory concentration (IC50) above 1000 nM.
As for [^125I]yorn′(ABS, G, DOTA, Lu)RNalG, the “Log PO/PBS” value in [2] is given as −1.28.
